Assay results as given in ChEMBL document CHEMBL4387728, “Synthetic glycopeptides reveal specific binding pattern and conformational change at O-mannosylated position of α-dystroglycan by POMGnT1 catalyzed GlcNAc modification” (Bioorg Med Chem, 2019).
The source made the active and inactive calls. No cut-off for these calls is given here. Peptide text beside a SMILES is read from it. * marks the point of attachment. X2 = CC(=O)N[C@H]1[C@H](O[C@H]2[C@@H](O)[C@H](O)[C@@H](CO)O[C@@H]2*)O[C@H](CO)[C@@H](O[C@@H]2O[C@H](CO)[C@H](O)[C@H](O)[C@H]2O)[C@@H]1O; GlcNAc(β1-2)αMan = CC(=O)N[C@H]1[C@H](O[C@H]2[C@@H](O)[C@H](O)[C@@H](CO)O[C@@H]2*)O[C@H](CO)[C@@H](O)[C@@H]1O; Hexanoyl(5-oxo) = CC(=O)CCCC(=O)*

Experiments:
[1] = system: Sambucus racemosa subsp. sieboldiana; assay: Binding affinity to biotin-labeled Sambucus sieboldiana agglutinin in pH 7.4 Tris buffer by fluorescence microarray method
Homo sapiens [2] = organism: Homo sapiens; assay: Binding affinity to biotin-labeled human recombinant laminin-2 at 10 ug/ml in pH 7.4 Tris buffer by fluorescence microarray method
[3] = target: Lactotransferrin (Homo sapiens) (UniProt P02788); assay: Binding affinity to biotin-labeled lactoferrin (unknown origin) at 10 ug/ml in pH 5.6 MES buffer by fluorescence microarray method
Chain of Lactotransferrin (Homo sapiens) (P02788 whole entry): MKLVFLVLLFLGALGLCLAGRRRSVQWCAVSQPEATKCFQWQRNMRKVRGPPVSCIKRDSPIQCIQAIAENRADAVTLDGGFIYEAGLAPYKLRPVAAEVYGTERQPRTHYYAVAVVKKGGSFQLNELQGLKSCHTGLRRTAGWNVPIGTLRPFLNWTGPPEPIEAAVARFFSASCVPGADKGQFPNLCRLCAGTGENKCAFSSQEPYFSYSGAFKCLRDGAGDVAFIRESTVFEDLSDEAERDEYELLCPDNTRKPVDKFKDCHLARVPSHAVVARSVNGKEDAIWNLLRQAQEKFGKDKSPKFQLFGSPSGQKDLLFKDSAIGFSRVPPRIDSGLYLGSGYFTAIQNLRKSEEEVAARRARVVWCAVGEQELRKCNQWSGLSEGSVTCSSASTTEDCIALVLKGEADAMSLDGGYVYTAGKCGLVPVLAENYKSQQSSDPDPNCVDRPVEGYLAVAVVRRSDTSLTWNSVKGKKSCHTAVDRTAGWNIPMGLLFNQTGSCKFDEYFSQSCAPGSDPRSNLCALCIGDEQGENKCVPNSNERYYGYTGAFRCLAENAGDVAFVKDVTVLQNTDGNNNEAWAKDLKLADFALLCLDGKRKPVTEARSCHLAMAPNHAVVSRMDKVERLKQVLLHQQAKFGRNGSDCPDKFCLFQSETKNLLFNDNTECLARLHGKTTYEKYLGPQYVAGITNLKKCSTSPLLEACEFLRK

[4] = target: Lactotransferrin (Homo sapiens) (UniProt P02788); assay: Binding affinity to biotin-labeled lactoferrin (unknown origin) at 10 ug/ml in pH 7.4 Tris buffer by fluorescence microarray method
Erythrina crista-galli = assay: Binding affinity to biotin-labeled Erythrina crista-galli agglutinin in pH 7.4 Tris buffer by fluorescence microarray method
[5] = target: Laminin subunit alpha-1 (Homo sapiens) (UniProt P25391); assay: Binding affinity to biotin-labeled human recombinant laminin-1 at 10 ug/ml in pH 5.6 MES buffer by fluorescence microarray method
Chain of Laminin subunit alpha-1 (Homo sapiens) (P25391 whole entry): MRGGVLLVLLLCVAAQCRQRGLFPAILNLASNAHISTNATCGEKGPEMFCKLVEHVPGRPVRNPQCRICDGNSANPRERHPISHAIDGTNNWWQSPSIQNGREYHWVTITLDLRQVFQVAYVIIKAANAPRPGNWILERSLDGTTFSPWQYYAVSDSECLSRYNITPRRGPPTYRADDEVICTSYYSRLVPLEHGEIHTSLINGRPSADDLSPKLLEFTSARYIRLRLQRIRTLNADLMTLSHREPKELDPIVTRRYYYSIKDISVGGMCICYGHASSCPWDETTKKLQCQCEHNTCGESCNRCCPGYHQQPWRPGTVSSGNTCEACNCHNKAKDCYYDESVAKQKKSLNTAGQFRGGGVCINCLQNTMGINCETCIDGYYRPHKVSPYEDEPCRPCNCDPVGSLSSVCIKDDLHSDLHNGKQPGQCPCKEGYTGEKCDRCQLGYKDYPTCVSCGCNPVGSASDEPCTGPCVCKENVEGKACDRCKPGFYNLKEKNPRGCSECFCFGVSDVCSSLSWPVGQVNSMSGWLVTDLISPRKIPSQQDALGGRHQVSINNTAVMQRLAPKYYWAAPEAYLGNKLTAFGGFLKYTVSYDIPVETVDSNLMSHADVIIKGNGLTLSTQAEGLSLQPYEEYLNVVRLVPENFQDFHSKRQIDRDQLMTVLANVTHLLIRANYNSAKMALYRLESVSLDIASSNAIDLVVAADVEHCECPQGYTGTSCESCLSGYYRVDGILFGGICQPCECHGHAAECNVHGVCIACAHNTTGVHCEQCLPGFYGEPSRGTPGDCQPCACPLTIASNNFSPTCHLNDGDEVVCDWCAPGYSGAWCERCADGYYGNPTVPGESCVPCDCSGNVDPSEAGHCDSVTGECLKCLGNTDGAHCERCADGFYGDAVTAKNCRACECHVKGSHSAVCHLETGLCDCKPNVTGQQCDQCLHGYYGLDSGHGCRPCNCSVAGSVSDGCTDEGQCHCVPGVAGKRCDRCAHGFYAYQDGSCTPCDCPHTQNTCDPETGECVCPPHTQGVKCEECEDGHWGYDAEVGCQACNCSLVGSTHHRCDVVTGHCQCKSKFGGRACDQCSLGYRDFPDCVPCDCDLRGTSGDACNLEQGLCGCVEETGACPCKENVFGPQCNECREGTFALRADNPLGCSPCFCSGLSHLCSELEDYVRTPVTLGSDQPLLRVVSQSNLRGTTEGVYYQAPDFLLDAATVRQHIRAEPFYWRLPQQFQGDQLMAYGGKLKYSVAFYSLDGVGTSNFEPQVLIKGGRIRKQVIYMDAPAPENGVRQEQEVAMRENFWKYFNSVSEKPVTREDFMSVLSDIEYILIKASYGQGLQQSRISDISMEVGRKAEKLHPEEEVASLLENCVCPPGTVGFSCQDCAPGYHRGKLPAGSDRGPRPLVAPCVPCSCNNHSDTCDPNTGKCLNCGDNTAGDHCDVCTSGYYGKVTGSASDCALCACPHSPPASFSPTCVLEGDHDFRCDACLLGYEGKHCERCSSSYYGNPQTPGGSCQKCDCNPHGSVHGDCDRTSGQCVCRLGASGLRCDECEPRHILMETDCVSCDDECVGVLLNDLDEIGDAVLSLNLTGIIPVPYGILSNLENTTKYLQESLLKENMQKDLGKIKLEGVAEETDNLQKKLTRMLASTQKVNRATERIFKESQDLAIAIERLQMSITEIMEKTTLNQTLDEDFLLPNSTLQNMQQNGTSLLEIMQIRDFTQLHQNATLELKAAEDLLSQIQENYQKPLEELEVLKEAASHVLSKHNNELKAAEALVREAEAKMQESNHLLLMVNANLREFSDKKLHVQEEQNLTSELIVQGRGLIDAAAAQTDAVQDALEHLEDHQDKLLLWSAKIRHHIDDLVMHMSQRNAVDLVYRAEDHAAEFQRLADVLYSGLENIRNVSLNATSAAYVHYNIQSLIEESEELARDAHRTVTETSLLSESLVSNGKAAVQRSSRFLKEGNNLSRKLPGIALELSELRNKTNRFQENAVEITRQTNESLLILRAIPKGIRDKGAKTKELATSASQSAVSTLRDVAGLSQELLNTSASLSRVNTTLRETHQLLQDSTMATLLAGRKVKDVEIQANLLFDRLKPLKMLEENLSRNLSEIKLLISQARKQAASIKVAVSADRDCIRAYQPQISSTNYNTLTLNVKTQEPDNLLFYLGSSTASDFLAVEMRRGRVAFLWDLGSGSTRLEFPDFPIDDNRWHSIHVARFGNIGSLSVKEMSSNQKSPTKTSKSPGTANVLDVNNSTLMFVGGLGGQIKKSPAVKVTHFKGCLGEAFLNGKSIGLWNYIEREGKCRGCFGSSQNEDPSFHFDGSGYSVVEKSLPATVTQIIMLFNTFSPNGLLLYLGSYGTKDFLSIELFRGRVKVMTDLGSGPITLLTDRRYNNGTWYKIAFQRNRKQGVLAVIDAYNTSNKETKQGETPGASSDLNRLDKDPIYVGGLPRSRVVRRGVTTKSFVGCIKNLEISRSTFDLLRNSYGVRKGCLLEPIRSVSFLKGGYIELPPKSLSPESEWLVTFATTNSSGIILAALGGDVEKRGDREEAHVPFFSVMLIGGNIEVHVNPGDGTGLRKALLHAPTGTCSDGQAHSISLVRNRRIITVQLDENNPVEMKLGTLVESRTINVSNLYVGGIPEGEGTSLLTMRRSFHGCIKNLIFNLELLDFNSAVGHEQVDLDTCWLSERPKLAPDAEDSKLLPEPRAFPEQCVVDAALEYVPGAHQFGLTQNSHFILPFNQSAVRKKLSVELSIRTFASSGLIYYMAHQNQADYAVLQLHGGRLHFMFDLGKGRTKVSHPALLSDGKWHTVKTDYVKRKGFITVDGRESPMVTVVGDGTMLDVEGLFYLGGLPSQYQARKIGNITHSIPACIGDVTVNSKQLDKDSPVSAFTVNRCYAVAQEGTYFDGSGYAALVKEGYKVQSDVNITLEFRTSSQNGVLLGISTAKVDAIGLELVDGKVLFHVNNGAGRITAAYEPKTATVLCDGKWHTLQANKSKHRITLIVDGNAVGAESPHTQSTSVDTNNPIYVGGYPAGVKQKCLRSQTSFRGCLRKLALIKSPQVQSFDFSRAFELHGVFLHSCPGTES

Maackia amurensis = assay: Binding affinity to biotin-labeled Maackia amurensis agglutinin in pH 7.4 Tris buffer by fluorescence microarray method
Triticum aestivum = assay: Binding affinity to biotin-labeled Wheat germ agglutinin in pH 7.4 Tris buffer by fluorescence microarray method
Canavalia ensiformis = assay: Binding affinity to biotin-labeled Canavalia ensiformis agglutinin in pH 7.4 Tris buffer by fluorescence microarray method
Arachis hypogaea = assay: Binding affinity to biotin-labeled Arachis hypogaea agglutinin in pH 7.4 Tris buffer by fluorescence microarray method
Datura stramonium = assay: Binding affinity to biotin-labeled Datura stramonium agglutinin in pH 7.4 Tris buffer by fluorescence microarray method
Homo sapiens [6] = organism: Homo sapiens; assay: Binding affinity to biotin-labeled human recombinant laminin-2 at 10 ug/ml in 5.6 MES buffer by fluorescence microarray method
[7] = Binding affinity to biotin-labeled Agaricus bisporus agglutinin in pH 7.4 Tris buffer by fluorescence microarray method
[8] = target: Laminin subunit alpha-1 (Homo sapiens) (UniProt P25391); assay: Binding affinity to biotin-labeled human recombinant laminin-1 at 10 ug/ml in pH 7.4 Tris buffer by fluorescence microarray method

Row | Activity [1] | Activity (Homo sapiens [2]) | Activity [3] | Activity [4] | Activity (Erythrina crista-galli) | Activity [5] | Activity (Maackia amurensis) | Activity (Triticum aestivum) | Activity (Canavalia ensiformis) | Activity (Arachis hypogaea) | Activity (Datura stramonium) | Activity (Homo sapiens [6]) | Activity [7] | Activity [8] | Compound
1 | Active | inactive | Active | inactive | Active | Active | inactive | Active | Active | Active | inactive | Active | Active | Active | CC[C@H](C)[C@H](NC(=O)[C@H](C)NC(=O)CNC(=O)[C@H](CCCNC(=N)N)NC(=O)[C@@H](NC(=O)CCCC(C)=O)[C@@H](C)O)C(=O)N[C@H](C(=O)N[C@@H](CCC(N)=O)C(=O)N[C@H](C(=O)N1CCC[C@H]1C(=O)N[C@H](C(=O)N[C@@H](CC(C)C)C(=O)NCC(=O)N1CCC[C@H]1C(=O)N[C@H](C(=O)N[C@@H](CCC(N)=O)C(=O)N1CCC[C@H]1C(=O)N[C@H](C(=O)N[C@@H](CCCNC(=N)N)C(=O)N[C@H](C(N)=O)C(C)C)[C@@H](C)O[C@H]1O[C@H](CO)[C@@H](O)[C@H](O)[C@@H]1O[C@@H]1O[C@H](CO)[C@@H](O)[C@H](O)[C@H]1NC(C)=O)[C@@H](C)CC)[C@@H](C)O[C@H]1O[C@H](CO)[C@@H](O)[C@H](O)[C@@H]1O[C@@H]1O[C@H](CO)[C@@H](O)[C@H](O)[C@H]1NC(C)=O)[C@@H](C)O[C@H]1O[C@H](CO)[C@@H](O)[C@H](O)[C@@H]1O[C@@H]1O[C@H](CO)[C@@H](O)[C@H](O)[C@H]1NC(C)=O)[C@@H](C)CC ({Hexanoyl(5-oxo)}-TRGAIIQT(GlcNAc(β1-2)αMan)PT(GlcNAc(β1-2)αMan)LGPIQPT(GlcNAc(β1-2)αMan)RV-NH2)
2 | Active | inactive | Active | inactive | Active | Active | inactive | Active | Active | Active | inactive | Active | Active | Active | CC[C@H](C)[C@H](NC(=O)[C@H](C)NC(=O)CNC(=O)[C@H](CCCNC(=N)N)NC(=O)[C@@H](NC(=O)CCCC(C)=O)[C@@H](C)O)C(=O)N[C@H](C(=O)N[C@@H](CCC(N)=O)C(=O)N[C@H](C(=O)N1CCC[C@H]1C(=O)N[C@H](C(=O)N[C@@H](CC(C)C)C(=O)NCC(=O)N1CCC[C@H]1C(=O)N[C@H](C(=O)N[C@@H](CCC(N)=O)C(=O)N1CCC[C@H]1C(=O)N[C@H](C(=O)N[C@@H](CCCNC(=N)N)C(=O)N[C@H](C(N)=O)C(C)C)[C@@H](C)O[C@H]1O[C@H](CO)[C@@H](O)[C@H](O)[C@@H]1O[C@@H]1O[C@H](CO)[C@@H](O[C@@H]2O[C@H](CO)[C@H](O)[C@H](O[C@]3(C(=O)O)C[C@H](O)[C@@H](NC(C)=O)[C@H]([C@H](O)[C@H](O)CO)O3)[C@H]2O)[C@H](O)[C@H]1NC(C)=O)[C@@H](C)CC)[C@@H](C)O[C@H]1O[C@H](CO)[C@@H](O)[C@H](O)[C@@H]1O[C@@H]1O[C@H](CO)[C@@H](O[C@@H]2O[C@H](CO)[C@H](O)[C@H](O[C@]3(C(=O)O)C[C@H](O)[C@@H](NC(C)=O)[C@H]([C@H](O)[C@H](O)CO)O3)[C@H]2O)[C@H](O)[C@H]1NC(C)=O)[C@@H](C)O[C@H]1O[C@H](CO)[C@@H](O)[C@H](O)[C@@H]1O[C@@H]1O[C@H](CO)[C@@H](O[C@@H]2O[C@H](CO)[C@H](O)[C@H](O[C@]3(C(=O)O)C[C@H](O)[C@@H](NC(C)=O)[C@H]([C@H](O)[C@H](O)CO)O3)[C@H]2O)[C@H](O)[C@H]1NC(C)=O)[C@@H](C)CC
3 | Active | inactive | Active | inactive | Active | Active | inactive | Active | Active | Active | inactive | Active | Active | Active | CC[C@H](C)[C@H](NC(=O)[C@H](C)NC(=O)CNC(=O)[C@H](CCCNC(=N)N)NC(=O)[C@@H](NC(=O)CCCC(C)=O)[C@@H](C)O)C(=O)N[C@H](C(=O)N[C@@H](CCC(N)=O)C(=O)N[C@H](C(=O)N1CCC[C@H]1C(=O)N[C@H](C(=O)N[C@@H](CC(C)C)C(=O)NCC(=O)N1CCC[C@H]1C(=O)N[C@H](C(=O)N[C@@H](CCC(N)=O)C(=O)N1CCC[C@H]1C(=O)N[C@H](C(=O)N[C@@H](CCCNC(=N)N)C(=O)N[C@H](C(N)=O)C(C)C)[C@@H](C)O[C@H]1O[C@H](CO)[C@@H](O)[C@H](O)[C@@H]1O[C@@H]1O[C@H](CO)[C@@H](O[C@@H]2O[C@H](CO)[C@H](O)[C@H](O)[C@H]2O)[C@H](O)[C@H]1NC(C)=O)[C@@H](C)CC)[C@@H](C)O[C@H]1O[C@H](CO)[C@@H](O)[C@H](O)[C@@H]1O[C@@H]1O[C@H](CO)[C@@H](O[C@@H]2O[C@H](CO)[C@H](O)[C@H](O)[C@H]2O)[C@H](O)[C@H]1NC(C)=O)[C@@H](C)O[C@H]1O[C@H](CO)[C@@H](O)[C@H](O)[C@@H]1O[C@@H]1O[C@H](CO)[C@@H](O[C@@H]2O[C@H](CO)[C@H](O)[C@H](O)[C@H]2O)[C@H](O)[C@H]1NC(C)=O)[C@@H](C)CC ({Hexanoyl(5-oxo)}-TRGAIIQT(X2)PT(X2)LGPIQPT(X2)RV-NH2)
4 | Active | inactive | Active | inactive | Active | Active | inactive | Active | Active | Active | inactive | Active | Active | Active | CC[C@H](C)[C@H](NC(=O)[C@H](C)NC(=O)CNC(=O)[C@H](CCCNC(=N)N)NC(=O)[C@@H](NC(=O)CCCC(C)=O)[C@@H](C)O)C(=O)N[C@H](C(=O)N[C@@H](CCC(N)=O)C(=O)N[C@H](C(=O)N1CCC[C@H]1C(=O)N[C@H](C(=O)N[C@@H](CC(C)C)C(=O)NCC(=O)N1CCC[C@H]1C(=O)N[C@H](C(=O)N[C@@H](CCC(N)=O)C(=O)N1CCC[C@H]1C(=O)N[C@H](C(=O)N[C@@H](CCCNC(=N)N)C(=O)N[C@H](C(N)=O)C(C)C)[C@@H](C)O)[C@@H](C)CC)[C@@H](C)O[C@H]1O[C@H](CO)[C@@H](O)[C@H](O)[C@@H]1O[C@@H]1O[C@H](CO)[C@@H](O)[C@H](O)[C@H]1NC(C)=O)[C@@H](C)O[C@H]1O[C@H](CO)[C@@H](O)[C@H](O)[C@@H]1O[C@@H]1O[C@H](CO)[C@@H](O)[C@H](O)[C@H]1NC(C)=O)[C@@H](C)CC ({Hexanoyl(5-oxo)}-TRGAIIQT(GlcNAc(β1-2)αMan)PT(GlcNAc(β1-2)αMan)LGPIQPTRV-NH2)
